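Dose response: 5 concentrations. Exposure: 48 h. Format: 96-well plates. Endpoint: linear interpolation; highest concentration if not reached. TGI is the concentration that stops growth completely.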
Tests used:
Experiment in all cases: NCI tumour cell line growth inhibition, 48 h
SW-620 colon = system: SW-620 colon
SF-539 CNS = system: SF-539 CNS
SK-MEL-28 melanoma = system: SK-MEL-28 melanoma
MDA-MB-435 = system: MDA-MB-435
A498 renal = system: A498 renal
MCF7 breast = system: MCF7 breast
MDA-N = system: MDA-N
SK-OV-3 ovarian = system: SK-OV-3 ovarian
OVCAR-8 ovarian = system: OVCAR-8 ovarian
EKVX NSCLC = system: EKVX NSCLC
HL-60(TB) leukemia = system: HL-60(TB) leukemia
HT29 colon = system: HT29 colon
UACC-257 melanoma = system: UACC-257 melanoma
SF-268 CNS = system: SF-268 CNS
RXF 393 renal = system: RXF 393 renal
MDA-MB-231 breast = system: MDA-MB-231 breast
TK-10 renal = system: TK-10 renal
RPMI-8226 leukemia = system: RPMI-8226 leukemia
ACHN renal = system: ACHN renal
PC-3 prostate = system: PC-3 prostate
OVCAR-5 ovarian = system: OVCAR-5 ovarian
K-562 leukemia = system: K-562 leukemia
HOP-62 NSCLC = system: HOP-62 NSCLC
U251 CNS = system: U251 CNS
OVCAR-4 ovarian = system: OVCAR-4 ovarian
M14 melanoma = system: M14 melanoma
NCI/ADR-RES ovarian = system: NCI/ADR-RES ovarian
NCI-H460 lung = system: NCI-H460 lung
UO-31 renal = system: UO-31 renal
DU-145 prostate = system: DU-145 prostate
NCI-H522 lung = system: NCI-H522 lung
KM12 colon = system: KM12 colon
CAKI-1 renal = system: CAKI-1 renal
LOX IMVI melanoma = system: LOX IMVI melanoma
IGROV1 ovarian = system: IGROV1 ovarian
CCRF-CEM leukemia = system: CCRF-CEM leukemia
NCI-H23 lung = system: NCI-H23 lung
SK-MEL-2 melanoma = system: SK-MEL-2 melanoma
786-0 renal = system: 786-0 renal
SK-MEL-5 melanoma = system: SK-MEL-5 melanoma
HCT-116 colon = system: HCT-116 colon
HS 578T breast = system: HS 578T breast
T-47D breast = system: T-47D breast
SR leukemia = system: SR leukemia
HCT-15 colon = system: HCT-15 colon
NCI-H226 lung = system: NCI-H226 lung
SF-295 CNS = system: SF-295 CNS
MOLT-4 leukemia = system: MOLT-4 leukemia
OVCAR-3 ovarian = system: OVCAR-3 ovarian
A549 NSCLC = system: A549 NSCLC
MALME-3M melanoma = system: MALME-3M melanoma
HCC-2998 colon = system: HCC-2998 colon
HOP-92 NSCLC = system: HOP-92 NSCLC
COLO 205 colon = system: COLO 205 colon
UACC-62 melanoma = system: UACC-62 melanoma
BT-549 breast = system: BT-549 breast
SN12C renal = system: SN12C renal
SNB-19 CNS = system: SNB-19 CNS
SNB-75 CNS = system: SNB-75 CNS

## Fc1ccc(NCn2nc(COc3ccccc3Cl)n(/N=C/c3ccc(-c4ccc(Cl)cc4Cl)o3)c2=S)cc1Cl
SW-620 colon
  TGI: > 100 µM
SF-539 CNS
  TGI: > 100 µM
SK-MEL-28 melanoma
  TGI: > 100 µM
MDA-MB-435
  TGI: > 100 µM
A498 renal
  TGI: 41.6 µM
MCF7 breast
  TGI: > 100 µM
MDA-N
  TGI: > 100 µM
SK-OV-3 ovarian
  TGI: > 100 µM
OVCAR-8 ovarian
  TGI: > 100 µM
EKVX NSCLC
  TGI: > 100 µM
HL-60(TB) leukemia
  TGI: 48.9 µM
HT29 colon
  TGI: > 100 µM
UACC-257 melanoma
  TGI: > 100 µM
SF-268 CNS
  TGI: > 100 µM
RXF 393 renal
  TGI: 56.6 µM
MDA-MB-231 breast
  TGI: > 100 µM
TK-10 renal
  TGI: > 100 µM
RPMI-8226 leukemia
  TGI: 72 µM
ACHN renal
  TGI: > 100 µM
PC-3 prostate
  TGI: > 100 µM
OVCAR-5 ovarian
  TGI: > 100 µM
K-562 leukemia
  TGI: 43.6 µM
HOP-62 NSCLC
  TGI: > 100 µM
U251 CNS
  TGI: 75.2 µM
OVCAR-4 ovarian
  TGI: > 100 µM
M14 melanoma
  TGI: > 100 µM
NCI/ADR-RES ovarian
  TGI: > 100 µM
NCI-H460 lung
  TGI: > 100 µM
UO-31 renal
  TGI: > 100 µM
DU-145 prostate
  TGI: > 100 µM
NCI-H522 lung
  TGI: > 100 µM
KM12 colon
  TGI: 99 µM
CAKI-1 renal
  TGI: > 100 µM
LOX IMVI melanoma
  TGI: > 100 µM
IGROV1 ovarian
  TGI: > 100 µM
CCRF-CEM leukemia
  TGI: > 100 µM
NCI-H23 lung
  TGI: > 100 µM
SK-MEL-2 melanoma
  TGI: 62.6 µM
786-0 renal
  TGI: > 100 µM
SK-MEL-5 melanoma
  TGI: 29.9 µM
HCT-116 colon
  TGI: > 100 µM
HS 578T breast
  TGI: > 100 µM
T-47D breast
  TGI: > 100 µM
SR leukemia
  TGI: 36.8 µM
HCT-15 colon
  TGI: > 100 µM
NCI-H226 lung
  TGI: > 100 µM
SF-295 CNS
  TGI: > 100 µM
MOLT-4 leukemia
  TGI: 45.5 µM
OVCAR-3 ovarian
  TGI: > 100 µM

## CCN(CC)c1nc(N(C)C)c2ccc(OC)cc2n1
SW-620 colon
  TGI: 50 µM
SF-539 CNS
  TGI: 49.6 µM
A549 NSCLC
  TGI: > 100 µM
SK-MEL-28 melanoma
  TGI: 32.4 µM
MDA-MB-435
  TGI: 24.6 µM
MCF7 breast
  TGI: 25 µM
MDA-N
  TGI: 22 µM
SK-OV-3 ovarian
  TGI: 52.5 µM
OVCAR-8 ovarian
  TGI: > 100 µM
EKVX NSCLC
  TGI: 21.8 µM
HL-60(TB) leukemia
  TGI: 17.2 µM
HT29 colon
  TGI: 26.1 µM
UACC-257 melanoma
  TGI: 28.1 µM
MALME-3M melanoma
  TGI: 55.1 µM
SF-268 CNS
  TGI: > 100 µM
RXF 393 renal
  TGI: 34.7 µM
MDA-MB-231 breast
  TGI: 75.8 µM
TK-10 renal
  TGI: > 100 µM
RPMI-8226 leukemia
  TGI: 31 µM
ACHN renal
  TGI: 59.6 µM
PC-3 prostate
  TGI: 54.8 µM
OVCAR-5 ovarian
  TGI: > 100 µM
K-562 leukemia
  TGI: 66.6 µM
HOP-62 NSCLC
  TGI: 76.7 µM
U251 CNS
  TGI: 71.8 µM
OVCAR-4 ovarian
  TGI: > 100 µM
M14 melanoma
  TGI: 22.2 µM
NCI/ADR-RES ovarian
  TGI: 69.1 µM
HCC-2998 colon
  TGI: 26.9 µM
NCI-H460 lung
  TGI: 26.5 µM
HOP-92 NSCLC
  TGI: > 100 µM
NCI-H522 lung
  TGI: 30.3 µM
KM12 colon
  TGI: 48.2 µM
CAKI-1 renal
  TGI: > 100 µM
LOX IMVI melanoma
  TGI: 42.3 µM
COLO 205 colon
  TGI: 21.6 µM
IGROV1 ovarian
  TGI: > 100 µM
NCI-H23 lung
  TGI: > 100 µM
SK-MEL-2 melanoma
  TGI: 36.5 µM
UACC-62 melanoma
  TGI: 24.8 µM
786-0 renal
  TGI: 89.3 µM
SK-MEL-5 melanoma
  TGI: 24.7 µM
HCT-116 colon
  TGI: 20.1 µM
HS 578T breast
  TGI: > 100 µM
T-47D breast
  TGI: 73.6 µM
SR leukemia
  TGI: 31.4 µM
HCT-15 colon
  TGI: > 100 µM
NCI-H226 lung
  TGI: 55.2 µM
BT-549 breast
  TGI: 64.8 µM
SN12C renal
  TGI: 48.7 µM
SNB-19 CNS
  TGI: 70 µM
SNB-75 CNS
  TGI: 66.6 µM
SF-295 CNS
  TGI: > 100 µM
MOLT-4 leukemia
  TGI: 22.1 µM

Source: PubChem BioAssay (NCI)
